# Values quoted from earlier work as cited in article PMC10795913 (The Journal of Clinical Endocrinology and Metabolism, 2023).
# Tested on: patients
# Conditions: different assays, not directly comparable; cited from earlier work
substance,measurement,value
lixisenatide,ADA incidence in published studies,up to 71.2%
